Test results published in US20220062147A1, “Skin Care Formulation for Treatment of Cellulite” (BOTTLED SCIENCE LIMITED, priority 2020, published 2022).

System: subjects with cellulite
Assay: Superoxide dismutase administered to subjects with cellulite; subcutaneous fat measured after 90 days
Format: in vivo, human
Source text: Similarly, there was a 23% reduction in subcutaneous fat compared with the placebo after 90 days at the femoral fold.

With superoxide dismutase the “reduction in subcutaneous fat compared with the placebo at the femoral fold” value (after 90 days, femoral fold, vs placebo) was 23%, the “reduction in subcutaneous fat compared with the placebo at the gluteal fold” value (after 90 days, gluteal fold, vs placebo) was 28% and the “subcutaneous fat at the femoral fold (FIG. 1, right-hand chart)” value (clinical trials, femoral fold, result in words) was “significantly reduces”. For the same substance, the “subcutaneous fat at the gluteal fold (FIG. 1, left-hand chart)” value (clinical trials, gluteal fold, result in words) was “significantly reduces”.
